{"source": "paper PMC10855113", "about": "“Opioid Analgesic as a Positive Allosteric Modulator of Acid-Sensing Ion Channels” (International Journal of Molecular Sciences, 2024)", "key": {"ASIC3 [1]": {"system": "ASIC3", "details": "mice; activation of ASIC3; ref [31],[32]; cited from earlier work", "from_the_text": "In this study, we have investigated the pharmacological effect of tafalgin (Taf) on ASICs. […] These channels, preferably having a neuronal localization, play an important role in the functioning of CNS and PNS, and are involved in the regulation of synaptic plasticity and learning, the fear perception, and responses to ischemic stroke, multiple sclerosis, and nociception. Positive modulators of ASICs are shown to have ..."}, "rat ASIC3 [2]": {"molecular_target": "T1, rat ASIC3 (Rattus norvegicus, UniProt O35240)", "T1 construct": "expressed in transfected cells; host or cells: Xenopus laevis oocytes injected with cRNA from a PCi plasmid", "T1 sequence (O35240 1-533)": "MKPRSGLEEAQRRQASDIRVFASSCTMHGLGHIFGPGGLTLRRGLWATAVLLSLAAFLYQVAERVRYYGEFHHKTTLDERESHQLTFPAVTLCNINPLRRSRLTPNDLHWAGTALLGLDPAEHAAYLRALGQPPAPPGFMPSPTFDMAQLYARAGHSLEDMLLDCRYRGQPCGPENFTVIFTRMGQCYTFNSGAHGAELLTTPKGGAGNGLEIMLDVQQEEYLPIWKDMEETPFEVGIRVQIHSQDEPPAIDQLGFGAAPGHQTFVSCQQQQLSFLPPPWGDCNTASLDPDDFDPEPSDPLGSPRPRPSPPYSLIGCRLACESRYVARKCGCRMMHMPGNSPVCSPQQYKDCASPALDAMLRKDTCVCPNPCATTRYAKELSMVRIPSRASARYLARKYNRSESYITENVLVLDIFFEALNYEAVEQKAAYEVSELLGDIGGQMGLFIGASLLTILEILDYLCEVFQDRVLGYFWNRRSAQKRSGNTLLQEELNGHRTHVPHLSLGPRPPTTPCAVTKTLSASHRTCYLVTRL", "experiment": "cell-based"}, "ASIC3 [3]": {"system": "ASIC3", "parameters": "method as in PMID 37918499", "details": "suppressing morphine-induced microglial activation through ASIC3 inhibition; ref [40]; cited from earlier work"}, "ASIC channels [4]": {"system": "ASIC channels", "parameters": "method as in PMID 34721074", "details": "dual-action ligand; ref [39]; cited from earlier work"}, "human ASIC3 [5]": {"molecular_target": "T2, human ASIC3 (Homo sapiens, UniProt Q9UHC3)", "T2 construct": "expressed in transfected cells; host or cells: Xenopus laevis oocytes injected with cRNA from a pVAX1 plasmid", "T2 sequence (Q9UHC3 1-531)": "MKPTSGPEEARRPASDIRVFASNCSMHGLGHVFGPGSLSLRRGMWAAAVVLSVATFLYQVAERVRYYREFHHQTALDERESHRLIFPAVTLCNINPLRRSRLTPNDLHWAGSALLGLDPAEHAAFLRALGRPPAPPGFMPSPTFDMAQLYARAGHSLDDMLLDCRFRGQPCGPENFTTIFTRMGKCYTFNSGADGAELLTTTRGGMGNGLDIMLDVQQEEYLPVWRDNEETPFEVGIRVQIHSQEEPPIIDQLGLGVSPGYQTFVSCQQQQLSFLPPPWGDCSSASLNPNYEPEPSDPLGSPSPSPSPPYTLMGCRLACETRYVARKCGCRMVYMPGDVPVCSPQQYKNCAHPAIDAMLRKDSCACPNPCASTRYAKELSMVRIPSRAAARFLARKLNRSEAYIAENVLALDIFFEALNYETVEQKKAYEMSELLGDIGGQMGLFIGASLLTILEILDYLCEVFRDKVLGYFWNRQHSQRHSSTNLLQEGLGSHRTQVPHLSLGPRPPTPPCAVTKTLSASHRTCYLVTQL", "experiment": "two-electrode voltage clamp, human ASIC3 in X. laevis oocytes", "type": "cell-based"}, "[6]": {"details": "solution for subcutaneous administration; ref manufacturer's website https://sotex.ru/production/catalog/detail.php?ELEMENT_ID=4952; cited from earlier work", "from_the_text": "Due to the modulating effect of Taf towards ASIC3 in peripheral neurons, the proven analgesic effect of Taf on human may be accompanied by the development of side effects such as pain, mechanical hyperalgesia, inflammatory muscle and joint hyperalgesia, etc., where ASIC3 plays a crucial role. In addition, the significant modulating effect on ASIC1b/3 heteromers (Figure 7) may also have a negative impact on both peripheral acute and acid-induced chronic pain, where the ASIC1b-containing channels also play an important role. Indeed, the recommended dose for subcutaneous a ..."}, "rat ASIC1a [7]": {"molecular_target": "T3, rat ASIC1a (Rattus norvegicus, UniProt P55926)", "T3 construct": "expressed in transfected cells; host or cells: Xenopus laevis oocytes injected with cRNA from a PCi plasmid", "T3 sequence (P55926 1-526)": "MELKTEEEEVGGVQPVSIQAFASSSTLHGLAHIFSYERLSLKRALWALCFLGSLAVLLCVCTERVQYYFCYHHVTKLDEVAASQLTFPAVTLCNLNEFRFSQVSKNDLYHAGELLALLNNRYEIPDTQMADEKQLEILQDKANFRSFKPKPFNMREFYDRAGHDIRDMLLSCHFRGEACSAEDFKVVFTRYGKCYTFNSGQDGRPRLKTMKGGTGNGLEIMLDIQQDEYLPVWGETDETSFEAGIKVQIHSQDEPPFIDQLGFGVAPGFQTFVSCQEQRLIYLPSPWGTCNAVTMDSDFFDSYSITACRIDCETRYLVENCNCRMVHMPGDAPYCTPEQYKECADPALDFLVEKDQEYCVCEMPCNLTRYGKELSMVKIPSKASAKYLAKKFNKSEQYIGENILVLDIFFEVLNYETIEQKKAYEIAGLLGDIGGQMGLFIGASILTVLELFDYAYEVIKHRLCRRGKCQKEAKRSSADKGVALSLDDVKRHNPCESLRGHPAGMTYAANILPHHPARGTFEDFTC", "experiment": "two-electrode voltage clamp, homomeric rat ASIC1a in X. laevis oocytes", "type": "cell-based"}, "human ASIC3 [8]": {"molecular_target": "T2, human ASIC3", "experiment": "steady-state desensitization of human ASIC3", "type": "cell-based", "details": "pH 7.4; 1 mM Taf; without Taf 11 ± 2%; control = pH drop 8.0 to 5.5; mean ± SEM, n = 5; p = 0.005; read-out: total integral current at conditioning pH 7.4, % of control"}, "rat ASIC3 [9]": {"molecular_target": "T1, rat ASIC3", "experiment": "steady-state desensitization (SSD) of rat ASIC3", "type": "cell-based", "details": "pH 7, without Taf 1.4 ± 0.2%, control = pH drop 7.4 to 5.5, mean ± SEM, n = 5, read-out: integral current at conditioning pH 7.0, % of control"}, "rat ASIC1a [10]": {"molecular_target": "T3, rat ASIC1a", "experiment": "steady-state desensitization of rat ASIC1a", "type": "cell-based", "details": "1 mM Taf; without Taf 9.1 ± 2.5%; stimulus pH 5.5; mean ± SEM, n = 5; p = 0.9; read-out: integral current at conditioning pH 7.0, % of control"}, "rat ASIC3 [11]": {"molecular_target": "T1, rat ASIC3", "experiment": "two-electrode voltage clamp, homomeric rat ASIC3 in X. laevis oocytes", "type": "cell-based"}, "ASIC channels [12]": {"system": "ASIC channels", "details": "cited from earlier work"}, "[13]": {"system": "ASIC1a and ASIC1a-containing channels", "details": "cited from earlier work"}, "ASIC1": {"system": "ASIC1", "details": "cited from earlier work"}}, "note": "Read-outs that look alike come from different tables or passages of the source. Where a SMILES comes first, the peptide text is derived from it. Bridges are numbered along the chain shown (N, C = ends). Where no end group is shown, it is not given here. [ ]: non-standard residue; d: D form."}
{"compound": "Cc1nc(NC(=N)N)nc2ccccc12", "note": "[2-guanidine-4-methylquinazoline]", "values": [{"measurement": "nocifensive behavior", "setting": "ASIC3 [1]", "result": "induce nocifensive behavior in mice"}]}
{"compound": "N=C(N)NC(=O)c1nc(Cl)c(N)nc1N", "note": "[Ami, amiloride]", "values": [{"measurement": "nH of inhibition in the presence of Taf", "setting": "rat ASIC3 [2]", "result": "1.06 ± 0.37"}, {"measurement": "residual integral current in the presence of Taf, % of control", "setting": "rat ASIC3 [2]", "result": "129 ± 9", "unit": "%"}, {"measurement": "τdes", "setting": "rat ASIC3 [2]", "result": "732 ± 46", "unit": "ms"}, {"measurement": "IC50", "setting": "rat ASIC3 [2]; half-maximal inhibitory concentration (IC50)", "result": "66.9 ± 5.2", "unit": "µM"}, {"measurement": "IC50", "setting": "rat ASIC3 [2]; half-maximal inhibitory concentration (IC50) in the presence of Taf", "result": "61.5 ± 21.2", "unit": "µM"}, {"measurement": "nH of inhibition", "setting": "rat ASIC3 [2]; pH 7.4", "result": "0.87 ± 0.05"}, {"measurement": "residual integral current (lower asymptote), % of control", "setting": "rat ASIC3 [2]; pH 7.4", "result": "36 ± 2", "unit": "%"}, {"measurement": "chronic morphine tolerance", "setting": "ASIC3 [3]", "result": "reduce chronic morphine tolerance"}, {"measurement": "action on ASIC channels", "setting": "ASIC channels [4]", "result": "capable of blocking ASIC channels and acting as an ASIC3-positive modulator"}]}
{"compound": "C[C@@H](NC(=O)[C@@H](N)Cc1ccc(O)cc1)C(=O)N[C@@H](Cc1ccccc1)C(=O)NCC(N)=O", "note": "[Taf, Tyr-D-Ala-Phe-Gly-NH2] (H-Y[dA]FG-NH2)", "values": [{"measurement": "EC50", "setting": "human ASIC3 [5]", "result": "330 ± 80", "unit": "µM"}, {"measurement": "Imax (upper asymptote), % of control", "setting": "human ASIC3 [5]; integral current, pH 8.0 to 5.5, mean ± SEM, 5 cells", "result": "373 ± 28", "unit": "%"}, {"measurement": "recommended subcutaneous dose concentration (~9 mM) over EC50 for human ASIC3", "setting": "human ASIC3 [5]; ~9 mM solution vs EC50 on hASIC3", "result": "approximately 30 times"}, {"measurement": "side effects", "setting": "[6]", "result": "peripheral neuropathy, itching, and pain at the injection site"}, {"measurement": "EC50", "setting": "rat ASIC1a [7]", "result": "1050 ± 270", "unit": "µM"}, {"measurement": "increase in the integral current", "setting": "rat ASIC1a [7]; 0.3 mM Taf, Vh −50 mV, pH 7.4 to 5.5, mean ± SEM, n = 5, p < 0.001", "result": "40 ± 5", "unit": "%"}, {"measurement": "integral current Imax, % of control", "setting": "rat ASIC1a [7]; pH 7.4 to 5.5, mean ± SEM, n = 10, same as rASIC3 (p = 0.45)", "result": "332 ± 103", "unit": "%"}, {"measurement": "remaining activity at 1000 µM", "setting": "human ASIC3 [8]", "result": "22 ± 4", "unit": "%"}, {"measurement": "remaining activity at 300 µM", "setting": "rat ASIC3 [9]; 0.3 mM Taf, p = 0.009", "result": "3.6 ± 0.3", "unit": "%"}, {"measurement": "remaining activity at 2000 µM", "setting": "rat ASIC3 [9]; 2 mM Taf", "result": "50 ± 3", "unit": "%"}, {"measurement": "remaining activity at 1000 µM", "setting": "rat ASIC1a [10]", "result": "9.4 ± 2.5", "unit": "%"}, {"measurement": "EC50", "setting": "rat ASIC3 [11]", "result": "86 ± 24", "unit": "µM"}, {"measurement": "increase in the integral current, protocol p.-a.", "setting": "rat ASIC3 [11]; 0.3 mM Taf pre-applied 30 s in resting state, conditioning pH 7.4, stimulus pH 5.5, mean ± SEM, n = 5, p < 0.001", "result": "116 ± 5", "unit": "%"}, {"measurement": "increase in the integral current", "setting": "rat ASIC3 [11]; 0.3 mM Taf, Vh −50 mV, pH 5.5 stimulus, isoform screening, mean ± SEM, n = 5, p < 0.001", "result": "115 ± 6", "unit": "%"}, {"measurement": "maximum current (Imax), to control", "setting": "rat ASIC3 [11]; integral current vs control (pH drop from 7.4 to 5.5), mean ± SEM, n = 9", "result": "251 ± 15", "unit": "%"}]}
{"compound": "CN1CC[C@]23c4c5ccc(O)c4O[C@H]2[C@@H](O)C=C[C@H]3[C@H]1C5", "note": "[morphine]", "values": [{"measurement": "effect on ASIC channels", "setting": "ASIC channels [12]", "result": "negative modulators"}]}
{"compound": "COc1ccc2c3c1O[C@H]1C(=O)CC[C@@]4(O)[C@@H](C2)N(C)CC[C@]314", "note": "[oxycodone]", "values": [{"measurement": "effect on ASIC channels", "setting": "ASIC channels [12]", "result": "positive modulating effect"}]}
{"compound": "DAMGO", "values": [{"measurement": "effect on ASIC channels", "setting": "ASIC channels [12]", "result": "negative modulators"}]}
{"compound": "GTACSCGNSKGIYWFYRPSCPTDRGYTGSCRYFLGTCCTPAD (disulfide 4-37, 6-30, 20-38) [APETx2]", "values": [{"measurement": "τdes", "setting": "rat ASIC3 [2]; 100 nM APETx2, control 282 ± 22 ms, mean ± SEM, n = 5, p = 0.2", "result": "240 ± 22", "unit": "ms"}, {"measurement": "nH of inhibition in the presence of Taf", "setting": "rat ASIC3 [2]; APETx2 + 0.3 mM Taf, mean ± SEM, 5–6 cells", "result": "1.11 ± 0.05"}, {"measurement": "nH of inhibition", "setting": "rat ASIC3 [2]; APETx2 alone, mean ± SEM, 5–6 cells", "result": "1.37 ± 0.05"}, {"measurement": "inhibition of the channel", "setting": "rat ASIC3 [2]; APETx2 alone, pH 7.4 to 5.5", "result": "completely inhibited the channel"}]}
{"compound": "dynorphin", "values": [{"measurement": "effect on proton-evoked currents", "setting": "[13]", "result": "restore the proton-evoked currents"}, {"measurement": "acidosis-induced neuronal death", "setting": "ASIC1", "result": "increase the acidosis-induced neuronal death"}]}
